Tests used:
Type in all cases: biochemical
Kdr = target: T1, Kdr (Homo sapiens, UniProt P35968); assay: Kinase inhibition assay (33P transfer), Kdr; settings: Table 3; read-out: KDR-1
T1 construct: Kinases are expressed as either kinase domains or full length constructs; made in house
Summary of the method: (§1)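 33P-ATP transfer to coated synthetic polymer substrates; acid wash (0.5% H3PO4), scintillant, liquid scintillation count. Enzymes: His- or GST-fusion kinases from E. coli or High Five insect cells.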

Zap-70 = target: T2, Zap-70 (Homo sapiens, UniProt P43403); assay: Kinase inhibition assay (33P transfer), Zap-70; settings: Table 3; read-out: Zap-1
T2 construct: Kinases are expressed as either kinase domains or full length constructs; made in house
T2 sequence (P43403 1-619): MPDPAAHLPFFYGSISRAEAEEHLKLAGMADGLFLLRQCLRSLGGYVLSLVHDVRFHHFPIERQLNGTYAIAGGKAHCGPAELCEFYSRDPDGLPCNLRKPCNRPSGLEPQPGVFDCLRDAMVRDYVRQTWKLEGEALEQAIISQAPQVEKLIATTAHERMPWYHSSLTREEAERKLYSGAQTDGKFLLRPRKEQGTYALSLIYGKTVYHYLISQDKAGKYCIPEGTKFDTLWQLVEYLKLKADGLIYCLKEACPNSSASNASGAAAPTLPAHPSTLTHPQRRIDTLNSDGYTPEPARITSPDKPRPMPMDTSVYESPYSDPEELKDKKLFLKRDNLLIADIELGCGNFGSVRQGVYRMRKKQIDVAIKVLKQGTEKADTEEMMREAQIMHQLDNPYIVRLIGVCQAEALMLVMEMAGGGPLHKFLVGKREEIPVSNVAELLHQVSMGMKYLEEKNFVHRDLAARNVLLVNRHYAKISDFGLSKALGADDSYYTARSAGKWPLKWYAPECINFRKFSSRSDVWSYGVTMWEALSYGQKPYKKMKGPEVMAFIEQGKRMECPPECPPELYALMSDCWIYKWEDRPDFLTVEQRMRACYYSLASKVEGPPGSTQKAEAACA
Summary of the method: as §1

PDGFRB = target: T3, PDGFRB (Homo sapiens, UniProt P09619); assay: Kinase inhibition assay (33P transfer), PDGFRB; settings: read-out: PDGFRB-1
T3 construct: Kinases are expressed as either kinase domains or full length constructs; made in house

Lck = target: T4, Lck (Homo sapiens, UniProt P06239); assay: Kinase inhibition assay (33P transfer), Lck; settings: Table 3; read-out: Lck-1
T4 construct: Kinases are expressed as either kinase domains or full length constructs; made in house
Summary of the method: as §1

FGFR1 = target: T5, FGFR1 (Homo sapiens, UniProt P11362); assay: Kinase inhibition assay (33P transfer), FGFR1; settings: read-out: FGFR1-1
T5 construct: Kinases are expressed as either kinase domains or full length constructs; made in house

Flt-1 = target: T6, Flt-1 (Homo sapiens, UniProt P17948); assay: Kinase inhibition assay (33P transfer), Flt-1
T6 construct: Kinases are expressed as either kinase domains or full length constructs; made in house
Summary of the method: (§2)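 Activity read as 33P incorporation from ATP into poly(Glu,Tyr) 4:1 or poly(Arg,Ser) 3:1 substrate bound to microtiter plates, measured by scintillation after acid washing. Enzymes were affinity-purified GST or polyHis fusions (kinase domain or full length) from E. coli or baculovirus; IC50 = 50% reduction in labelled phosphate.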

Tek = target: T7, Tek (Homo sapiens, UniProt Q02763); assay: Kinase inhibition assay (33P transfer), Tek; settings: read-out: Tek-1
T7 construct: Kinases are expressed as either kinase domains or full length constructs; made in house
Summary of the method: as §2

AKT = target: T8, AKT (Homo sapiens, UniProt Q9Y243); assay: Kinase inhibition assay (33P transfer), AKT; settings: Table 2, kinase inhibition class; read-out: AKT3-1
T8 construct: Kinases are expressed as either kinase domains or full length constructs; made in house
Summary of the method: as §1

Lyn = target: T9, Lyn (Homo sapiens, UniProt P07948); assay: Kinase inhibition assay (33P transfer), Lyn; settings: Table 6, Lyn-1 kinase inhibition class
T9 construct: Kinases are expressed as either kinase domains or full length constructs; made in house
Summary of the method: as §2

Ret-1 = target: T10, Ret-1 (Homo sapiens, UniProt P07949); assay: Kinase inhibition assay (33P transfer), Ret; settings: Table 6, Ret-1 kinase inhibition class
T10 construct: Kinases are expressed as either kinase domains or full length constructs; made in house
T10 sequence (P07949 29-1114): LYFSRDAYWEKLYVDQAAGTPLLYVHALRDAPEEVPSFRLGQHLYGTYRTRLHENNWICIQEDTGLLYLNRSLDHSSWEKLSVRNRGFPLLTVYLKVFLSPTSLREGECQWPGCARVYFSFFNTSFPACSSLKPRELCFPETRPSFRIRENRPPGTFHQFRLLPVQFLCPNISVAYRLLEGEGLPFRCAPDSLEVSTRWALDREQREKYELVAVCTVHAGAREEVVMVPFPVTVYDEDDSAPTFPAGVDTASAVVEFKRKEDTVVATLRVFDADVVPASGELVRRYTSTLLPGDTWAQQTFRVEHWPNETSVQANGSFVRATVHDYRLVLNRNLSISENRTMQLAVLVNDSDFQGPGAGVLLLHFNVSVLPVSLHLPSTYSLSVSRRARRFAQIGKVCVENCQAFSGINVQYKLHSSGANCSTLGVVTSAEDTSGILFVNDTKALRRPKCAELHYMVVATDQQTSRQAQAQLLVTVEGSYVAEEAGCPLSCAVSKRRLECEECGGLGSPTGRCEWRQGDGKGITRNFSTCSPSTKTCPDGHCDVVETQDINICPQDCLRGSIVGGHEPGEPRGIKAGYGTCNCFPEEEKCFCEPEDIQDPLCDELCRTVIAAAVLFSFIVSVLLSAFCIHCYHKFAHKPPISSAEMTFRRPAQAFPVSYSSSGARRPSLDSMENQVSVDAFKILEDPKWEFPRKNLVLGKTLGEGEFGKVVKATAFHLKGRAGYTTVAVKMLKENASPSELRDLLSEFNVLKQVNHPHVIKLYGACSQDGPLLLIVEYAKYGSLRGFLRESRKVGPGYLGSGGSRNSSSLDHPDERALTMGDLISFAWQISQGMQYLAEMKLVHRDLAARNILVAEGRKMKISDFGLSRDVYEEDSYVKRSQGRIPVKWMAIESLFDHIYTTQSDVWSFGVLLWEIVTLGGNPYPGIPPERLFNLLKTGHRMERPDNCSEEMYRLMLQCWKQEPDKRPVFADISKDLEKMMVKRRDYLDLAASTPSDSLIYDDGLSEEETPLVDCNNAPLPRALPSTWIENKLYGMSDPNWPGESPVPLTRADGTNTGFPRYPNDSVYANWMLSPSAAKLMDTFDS

T6 sequence (P17948 27-1338, species assumed): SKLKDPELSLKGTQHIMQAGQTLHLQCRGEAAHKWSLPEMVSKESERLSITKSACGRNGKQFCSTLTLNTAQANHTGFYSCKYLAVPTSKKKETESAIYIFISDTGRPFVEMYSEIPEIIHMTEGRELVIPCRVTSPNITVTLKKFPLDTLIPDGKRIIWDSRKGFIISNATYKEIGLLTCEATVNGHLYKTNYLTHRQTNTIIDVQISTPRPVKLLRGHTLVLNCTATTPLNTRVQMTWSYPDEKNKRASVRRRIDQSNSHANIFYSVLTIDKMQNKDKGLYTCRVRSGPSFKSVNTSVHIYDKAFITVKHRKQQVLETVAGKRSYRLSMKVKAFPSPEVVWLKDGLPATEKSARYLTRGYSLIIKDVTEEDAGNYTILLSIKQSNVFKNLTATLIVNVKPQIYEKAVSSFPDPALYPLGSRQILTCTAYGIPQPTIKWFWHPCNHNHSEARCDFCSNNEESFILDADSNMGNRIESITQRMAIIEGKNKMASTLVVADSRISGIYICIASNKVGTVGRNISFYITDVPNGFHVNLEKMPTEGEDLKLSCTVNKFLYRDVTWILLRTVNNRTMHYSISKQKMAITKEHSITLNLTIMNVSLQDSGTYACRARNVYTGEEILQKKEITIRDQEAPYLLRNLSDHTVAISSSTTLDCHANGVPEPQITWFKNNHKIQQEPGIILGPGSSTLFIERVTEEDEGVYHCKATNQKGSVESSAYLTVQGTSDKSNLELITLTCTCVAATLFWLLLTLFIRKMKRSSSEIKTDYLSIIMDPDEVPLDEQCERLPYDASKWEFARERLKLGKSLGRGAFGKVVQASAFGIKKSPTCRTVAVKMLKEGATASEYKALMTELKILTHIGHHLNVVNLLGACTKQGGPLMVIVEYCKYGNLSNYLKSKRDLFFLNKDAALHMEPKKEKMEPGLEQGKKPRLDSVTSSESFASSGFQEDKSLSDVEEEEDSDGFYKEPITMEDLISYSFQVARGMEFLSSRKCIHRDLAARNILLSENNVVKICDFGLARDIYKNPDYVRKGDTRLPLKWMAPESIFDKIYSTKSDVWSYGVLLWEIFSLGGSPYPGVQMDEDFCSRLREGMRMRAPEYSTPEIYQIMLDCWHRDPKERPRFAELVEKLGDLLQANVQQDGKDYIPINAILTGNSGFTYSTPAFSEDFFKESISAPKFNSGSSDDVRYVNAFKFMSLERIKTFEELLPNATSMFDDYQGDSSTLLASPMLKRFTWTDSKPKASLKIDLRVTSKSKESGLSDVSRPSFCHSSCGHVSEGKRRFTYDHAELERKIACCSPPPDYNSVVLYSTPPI
T5 sequence (P11362 22-822, species assumed): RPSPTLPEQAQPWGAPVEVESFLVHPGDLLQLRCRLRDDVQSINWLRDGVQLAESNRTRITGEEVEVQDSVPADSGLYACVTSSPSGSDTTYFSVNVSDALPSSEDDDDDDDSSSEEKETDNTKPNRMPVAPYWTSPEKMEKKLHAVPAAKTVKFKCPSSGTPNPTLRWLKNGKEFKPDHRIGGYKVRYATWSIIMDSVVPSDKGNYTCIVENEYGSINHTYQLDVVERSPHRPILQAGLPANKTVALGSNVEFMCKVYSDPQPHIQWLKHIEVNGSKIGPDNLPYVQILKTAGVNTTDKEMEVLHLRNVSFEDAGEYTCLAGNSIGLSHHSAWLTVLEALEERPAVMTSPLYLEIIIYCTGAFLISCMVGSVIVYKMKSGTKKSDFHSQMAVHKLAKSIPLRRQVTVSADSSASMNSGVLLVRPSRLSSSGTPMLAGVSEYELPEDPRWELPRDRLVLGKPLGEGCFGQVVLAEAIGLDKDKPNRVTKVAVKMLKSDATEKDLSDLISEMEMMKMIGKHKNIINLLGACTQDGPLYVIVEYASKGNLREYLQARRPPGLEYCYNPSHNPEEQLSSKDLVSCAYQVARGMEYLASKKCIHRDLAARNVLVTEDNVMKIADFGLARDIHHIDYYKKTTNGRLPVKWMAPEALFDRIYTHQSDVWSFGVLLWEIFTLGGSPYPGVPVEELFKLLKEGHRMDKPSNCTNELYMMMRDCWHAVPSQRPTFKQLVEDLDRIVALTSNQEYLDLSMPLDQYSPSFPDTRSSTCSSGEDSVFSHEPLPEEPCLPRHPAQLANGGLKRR
T9 sequence (P07948 whole entry, species assumed, the tested form may be a part): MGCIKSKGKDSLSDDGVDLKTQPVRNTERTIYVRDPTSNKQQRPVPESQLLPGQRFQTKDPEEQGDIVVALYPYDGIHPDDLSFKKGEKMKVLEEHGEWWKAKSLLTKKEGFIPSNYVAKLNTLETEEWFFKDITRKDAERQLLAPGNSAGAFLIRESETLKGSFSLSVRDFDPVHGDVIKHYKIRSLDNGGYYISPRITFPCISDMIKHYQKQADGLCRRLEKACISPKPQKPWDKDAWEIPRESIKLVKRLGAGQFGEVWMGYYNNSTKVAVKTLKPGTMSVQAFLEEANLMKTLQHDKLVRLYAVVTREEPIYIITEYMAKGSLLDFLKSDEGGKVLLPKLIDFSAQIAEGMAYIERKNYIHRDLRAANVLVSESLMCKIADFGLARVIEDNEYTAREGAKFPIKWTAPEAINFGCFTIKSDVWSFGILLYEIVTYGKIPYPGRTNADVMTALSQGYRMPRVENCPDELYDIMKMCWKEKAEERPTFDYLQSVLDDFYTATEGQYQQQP
T3 sequence (P09619 33-1106, species assumed): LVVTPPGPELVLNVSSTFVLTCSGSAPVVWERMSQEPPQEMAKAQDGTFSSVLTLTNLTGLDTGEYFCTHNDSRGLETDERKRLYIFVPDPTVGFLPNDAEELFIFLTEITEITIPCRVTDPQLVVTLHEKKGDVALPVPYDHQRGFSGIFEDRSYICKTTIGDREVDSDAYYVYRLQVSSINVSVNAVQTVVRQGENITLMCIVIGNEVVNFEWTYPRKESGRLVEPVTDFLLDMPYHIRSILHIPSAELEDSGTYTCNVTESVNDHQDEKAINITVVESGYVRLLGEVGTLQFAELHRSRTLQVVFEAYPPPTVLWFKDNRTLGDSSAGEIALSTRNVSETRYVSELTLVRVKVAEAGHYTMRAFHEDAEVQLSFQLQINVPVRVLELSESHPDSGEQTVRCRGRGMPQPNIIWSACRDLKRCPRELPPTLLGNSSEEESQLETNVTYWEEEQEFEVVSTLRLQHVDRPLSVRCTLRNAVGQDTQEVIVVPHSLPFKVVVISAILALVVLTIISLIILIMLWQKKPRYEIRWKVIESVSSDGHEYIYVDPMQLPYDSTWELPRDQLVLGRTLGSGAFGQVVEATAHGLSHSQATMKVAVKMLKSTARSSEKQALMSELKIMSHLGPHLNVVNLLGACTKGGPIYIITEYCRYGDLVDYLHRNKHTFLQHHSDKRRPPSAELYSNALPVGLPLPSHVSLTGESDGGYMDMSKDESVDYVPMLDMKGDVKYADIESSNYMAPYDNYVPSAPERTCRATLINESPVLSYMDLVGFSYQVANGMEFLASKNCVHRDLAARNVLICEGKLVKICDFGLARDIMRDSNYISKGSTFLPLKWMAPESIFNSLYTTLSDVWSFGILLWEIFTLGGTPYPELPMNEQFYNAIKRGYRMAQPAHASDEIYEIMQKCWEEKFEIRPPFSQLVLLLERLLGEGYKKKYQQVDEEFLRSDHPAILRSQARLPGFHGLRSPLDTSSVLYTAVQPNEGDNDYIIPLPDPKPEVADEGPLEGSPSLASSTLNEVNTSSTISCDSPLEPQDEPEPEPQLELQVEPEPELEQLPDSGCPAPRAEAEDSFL

Row | Compound | IC50 (Kdr) | IC50 (Zap-70) | IC50 (PDGFRB) | IC50 (Lck) | IC50 (FGFR1) | IC50 (Flt-1) | IC50 (Tek) | IC50 (AKT) | IC50 (Lyn) | IC50 (Ret-1)
1 | CCOc1ccc(Nc2ncnc(Nc3ccc(C)c(O)c3)n2)cc1OCC [Compound 121] | < 1.05 µM | > 11.8 µM | < 1.05 µM | 1.05 to 6.29 µM | 1.05 to 6.29 µM | < 1.05 µM | > 11.8 µM | > 11.8 µM | < 1.05 µM | < 1.05 µM
2 | COCCOc1ccc(Nc2ncnc(Nc3ccc(C)c(O)c3)n2)cc1OC [Compound 123] | < 1.01 µM | > 11.3 µM | < 1.01 µM | 1.01 to 6.04 µM | 1.01 to 6.04 µM | < 1.01 µM | 8.81 to 11.3 µM | > 11.3 µM | < 1.01 µM | < 1.01 µM
3 | COCCOc1ccc(Nc2ncnc(Nc3ccc(C)c(O)c3)n2)cc1OCCOC [Compound 125] | < 0.906 µM | > 10.2 µM | < 0.906 µM | 0.906 to 5.44 µM | 0.906 to 5.44 µM | < 0.906 µM | > 10.2 µM | > 10.2 µM | < 0.906 µM | 0.906 to 5.44 µM
4 | COCCOc1cc(Nc2ncnc(Nc3ccc(C)c(O)c3)n2)ccc1OC [Compound 127] | < 1.01 µM | > 11.3 µM | < 1.01 µM | 1.01 to 6.04 µM | 1.01 to 6.04 µM | < 1.01 µM | > 11.3 µM | > 11.3 µM | < 1.01 µM | < 1.01 µM
5 | CCOc1ccc(Nc2ncnc(Nc3ccc(OCc4ccccc4)cc3)n2)cc1OCC [Compound 170] | 0.874 to 5.25 µM | 5.25 to 7.65 µM | > 9.84 µM | > 9.84 µM | > 9.84 µM | > 9.84 µM | 5.25 to 7.65 µM | 0.874 to 5.25 µM | > 9.84 µM | –
6 | COc1cc(Nc2ncnc(N3CCCCC3)n2)cc(OC)c1OC [Compound 207] | 1.16 to 6.95 µM | > 13 µM | > 13 µM | 10.1 to 13 µM | > 13 µM | 1.16 to 6.95 µM | > 13 µM | > 13 µM | – | –
7 | COc1cc(Nc2ncnc(Nc3cc(OC)c(OC)c(OC)c3)n2)cc(OC)n1 [Compound 253] | 0.965 to 5.79 µM | > 10.9 µM | – | 8.45 to 10.9 µM | – | – | – | > 10.9 µM | > 10.9 µM | –
8 | COc1cc(Nc2ncnc(-n3c(Nc4ccccc4)nc4ccccc43)n2)cc(OC)c1OC [Compound 336] | – | > 9.58 µM | < 0.852 µM | 0.852 to 5.11 µM | < 0.852 µM | < 0.852 µM | > 9.58 µM | > 9.58 µM | 0.852 to 5.11 µM | < 0.852 µM
9 | COc1ccc(Nc2ncnc(Nc3ccc(Oc4ccccc4)cc3)n2)cc1OC [Compound 929] | 0.963 to 5.78 µM | 5.78 to 8.42 µM | > 10.8 µM | 0.963 to 5.78 µM | > 10.8 µM | > 10.8 µM | > 10.8 µM | > 10.8 µM | – | 5.78 to 8.42 µM
10 | COc1cc(Nc2ncnc(Nc3ccc(C)c(N)c3)n2)cc(OC)c1OC [Compound 935] | < 1.05 µM | > 11.8 µM | < 1.05 µM | 1.05 to 6.28 µM | 1.05 to 6.28 µM | 1.05 to 6.28 µM | > 11.8 µM | > 11.8 µM | < 1.05 µM | –
11 | COc1cc(Nc2ncnc(Nc3ccc(Br)c(Cl)c3)n2)cc(OC)c1OC [Compound 936] | 0.857 to 5.14 µM | > 9.64 µM | < 0.857 µM | 0.857 to 5.14 µM | 0.857 to 5.14 µM | 0.857 to 5.14 µM | > 9.64 µM | > 9.64 µM | < 0.857 µM | –
12 | C=CCN(c1ccc(Cl)cc1)c1ncnc(Nc2cc(OC)c(OC)c(OC)c2)n1 [Compound 972] | < 0.935 µM | > 10.5 µM | < 0.935 µM | 0.935 to 5.61 µM | 0.935 to 5.61 µM | 0.935 to 5.61 µM | 8.18 to 10.5 µM | > 10.5 µM | < 0.935 µM | –
